From ChEMBL document CHEMBL1201862, “PubChem BioAssay data set” (2004) come the findings set out here.

A word on the AC50: it is the concentration at which the activity in the assay is half-maximal. What is called CC50 is the concentration at which the toxic effect on the cells reaches its halfway point. Broadly, the EC50 is the concentration that produces a half-maximal response. A word on the GI50: it is the concentration giving 50% growth inhibition.

In experiment [1] the test system is INS1. In words: INS-1E survival protection against cytokine death – cell-based, luminescence, retest, dose response (AID 449756).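 Also: cell death triggered by IL-1 beta plus TNF-alpha plus IFN-gamma mixture; protective hits raise ATP signal compared with cytokine alone wells.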 Type of experiment: functional. The note with it: Rattus norvegicus, INS1.
The target of experiment [2] is Protein Wnt-3a (Mus musculus, UniProt P27467). Put plainly: antagonism of Wnt3a pathway luciferase reporter – Wnt-LIGHT cells, luminescence, selectivity assay for Gli-SUFU antagonist project, dose response (AID 651570).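 Also: Wnt-LIGHT reporter cells stimulated with conditioned medium from Wnt3a-producing cells.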 It counts as functional. The note with it: read-out: IC50_Mean. On the technique in general: A reporter such as luciferase makes a cellular process visible.

The nature of experiment [3]: cAMP pathway inhibition in counterscreen cell line – TR-FRET cAMP detection, counter-screen for MC4R biased antagonist project, dose response (AID 602305).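 Also: U2OS cells stimulated with forskolin near its EC80 as the cAMP inducer; potency is for inhibition of forskolin-stimulated cAMP signaling.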 Type of experiment: functional, cell-based. On the technique in general: The purpose of a counterscreen is to sort out artefacts and off-target activity.
For experiment [4], the target named is Melanocortin receptor 4 (Homo sapiens, UniProt P32245). In words: inhibitors of MC4R cAMP signaling – cell-based, TR-FRET, biased antagonists, dose response (AID 602298).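 Also: antagonist potency against agonist-stimulated cAMP production.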 It counts as functional.
Experiment [5] concerns Vero. Put plainly: viability of Vero cells under compound – cytotoxicity control for flavivirus capping enzyme inhibitors (AID 588742). Type of experiment: functional. The note with it: Chlorocebus sabaeus.
Experiment [6] deals with T1, Apoptotic protease-activating factor 1 (Homo sapiens, UniProt O14727).
T1 sequence (O14727 whole entry): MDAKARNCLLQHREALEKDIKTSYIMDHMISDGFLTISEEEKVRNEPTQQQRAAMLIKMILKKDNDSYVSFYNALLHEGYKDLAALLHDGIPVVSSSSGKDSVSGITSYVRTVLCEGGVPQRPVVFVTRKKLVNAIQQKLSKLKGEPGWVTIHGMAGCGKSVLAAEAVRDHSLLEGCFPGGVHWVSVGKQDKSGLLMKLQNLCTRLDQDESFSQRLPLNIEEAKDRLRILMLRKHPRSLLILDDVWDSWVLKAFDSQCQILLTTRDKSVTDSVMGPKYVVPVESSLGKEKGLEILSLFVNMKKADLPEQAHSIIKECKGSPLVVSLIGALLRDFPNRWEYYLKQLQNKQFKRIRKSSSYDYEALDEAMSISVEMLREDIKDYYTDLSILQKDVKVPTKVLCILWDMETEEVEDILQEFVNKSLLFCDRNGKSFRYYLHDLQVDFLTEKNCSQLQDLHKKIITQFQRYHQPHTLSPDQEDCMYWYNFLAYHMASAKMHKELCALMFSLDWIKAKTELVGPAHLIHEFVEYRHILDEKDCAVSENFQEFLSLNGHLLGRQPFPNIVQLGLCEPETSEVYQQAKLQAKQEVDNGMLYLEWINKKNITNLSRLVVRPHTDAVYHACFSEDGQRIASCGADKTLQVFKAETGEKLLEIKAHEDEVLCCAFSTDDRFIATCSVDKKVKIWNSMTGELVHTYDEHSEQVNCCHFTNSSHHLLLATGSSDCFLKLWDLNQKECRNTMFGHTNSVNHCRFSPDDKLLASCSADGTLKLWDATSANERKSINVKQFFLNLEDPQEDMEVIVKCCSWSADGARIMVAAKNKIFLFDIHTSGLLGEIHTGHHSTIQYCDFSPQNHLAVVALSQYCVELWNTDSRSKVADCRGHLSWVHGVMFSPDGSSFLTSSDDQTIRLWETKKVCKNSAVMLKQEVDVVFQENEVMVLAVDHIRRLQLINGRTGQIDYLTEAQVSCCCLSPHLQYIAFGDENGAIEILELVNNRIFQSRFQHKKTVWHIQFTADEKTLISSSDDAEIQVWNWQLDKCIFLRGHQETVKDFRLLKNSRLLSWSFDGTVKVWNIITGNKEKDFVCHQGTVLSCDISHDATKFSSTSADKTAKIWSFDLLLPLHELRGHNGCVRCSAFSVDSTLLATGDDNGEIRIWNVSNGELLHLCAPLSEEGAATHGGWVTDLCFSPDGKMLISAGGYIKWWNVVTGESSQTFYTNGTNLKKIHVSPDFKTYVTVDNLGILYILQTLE
It counts as functional.

Experiment [7] concerns the target T2, Endoribonuclease toxin MazF (Escherichia coli K-12, UniProt P0AE70).
T2 sequence (P0AE70 whole entry): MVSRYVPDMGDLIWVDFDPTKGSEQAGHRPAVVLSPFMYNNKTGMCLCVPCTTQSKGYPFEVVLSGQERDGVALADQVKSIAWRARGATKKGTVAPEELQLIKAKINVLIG
Put plainly: substrate-only fluorescence increase artefacts – biochemical, single-stranded RNase substrate, counter-screen for MazEF activator project, dose response (AID 588502). It counts as functional.

In experiment [8] the target is T2, Endoribonuclease toxin MazF. Put plainly: activation of MazEF endoribonuclease cleavage – biochemical, fluorescence, single-stranded RNA substrate, uHTS hits, dose response (AID 588481). Type of experiment: functional.
Experiment [9] has as its target T3, Small ubiquitin-related modifier 1 (Homo sapiens, UniProt P63165). Put plainly: SUMO1 protein-protein binding blockers, potency – biochemical, FRET, dose response (AID 624383). It counts as functional. The note with it: read-out: IC50_Mean.
Experiment [10] concerns Streptococcus. In words: GAS UMAA2166 growth inhibition – luminescence, BacTiterGlo, counter-screen for streptokinase expression inhibitor project, dose response (AID 1915).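 Also: potency for reduction of bacterial viability or growth.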 It counts as functional, organism-based.
Experiment [11] deals with T4, Aminopeptidase N (Plasmodium falciparum FcB1/Columbia, UniProt O96935).
T4 sequence (O96935 whole entry): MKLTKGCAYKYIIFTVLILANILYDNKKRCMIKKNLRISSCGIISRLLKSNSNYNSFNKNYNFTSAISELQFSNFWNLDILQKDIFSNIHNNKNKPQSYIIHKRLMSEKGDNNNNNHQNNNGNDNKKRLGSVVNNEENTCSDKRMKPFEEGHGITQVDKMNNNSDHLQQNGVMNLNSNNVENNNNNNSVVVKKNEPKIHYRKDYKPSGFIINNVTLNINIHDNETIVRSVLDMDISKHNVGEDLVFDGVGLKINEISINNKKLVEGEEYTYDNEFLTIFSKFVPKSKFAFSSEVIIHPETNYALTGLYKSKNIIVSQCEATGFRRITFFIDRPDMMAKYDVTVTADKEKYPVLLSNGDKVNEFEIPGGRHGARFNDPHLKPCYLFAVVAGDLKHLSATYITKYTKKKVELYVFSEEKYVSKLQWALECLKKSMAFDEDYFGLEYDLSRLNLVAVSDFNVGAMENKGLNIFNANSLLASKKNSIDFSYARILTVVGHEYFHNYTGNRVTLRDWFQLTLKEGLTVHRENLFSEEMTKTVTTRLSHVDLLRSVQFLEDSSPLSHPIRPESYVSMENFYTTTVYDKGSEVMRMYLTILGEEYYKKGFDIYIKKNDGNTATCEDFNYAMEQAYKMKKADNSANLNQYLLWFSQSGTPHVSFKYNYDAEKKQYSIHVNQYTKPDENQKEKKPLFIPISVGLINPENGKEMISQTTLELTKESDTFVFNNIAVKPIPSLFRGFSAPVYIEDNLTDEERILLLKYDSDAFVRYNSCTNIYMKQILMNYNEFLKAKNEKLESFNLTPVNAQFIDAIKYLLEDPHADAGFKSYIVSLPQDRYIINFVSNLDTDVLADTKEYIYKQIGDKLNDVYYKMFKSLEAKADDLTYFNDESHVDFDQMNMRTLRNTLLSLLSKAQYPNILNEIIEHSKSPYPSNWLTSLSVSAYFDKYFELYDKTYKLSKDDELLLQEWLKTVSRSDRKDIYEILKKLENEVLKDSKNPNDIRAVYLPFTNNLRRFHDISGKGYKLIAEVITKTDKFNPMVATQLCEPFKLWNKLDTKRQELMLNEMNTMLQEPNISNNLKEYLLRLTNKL
Put plainly: malaria alanyl aminopeptidase activity blockers – biochemical, fluorogenic H-Leu-NHMec substrate, 1536-well (AID 1445). On the set-up: species or system Plasmodium falciparum 3D7, 3D7.

Experiment [12] addresses Eukaryotic translation initiation factor 4E (Mus musculus, UniProt P63073). Put plainly: blockers of eIF4G binding by eIF4E – biochemical, TR-FRET, dose response (AID 855).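 Also: potency for disrupting eIF4E binding to eIF4GI seen as loss of FRET.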 It counts as functional.
The target in experiment [13] is T3, Small ubiquitin-related modifier 1. Put plainly: SUMO1 protein interaction blockers, potency – biochemical, fluorescence polarization, uHTS hits, dose response (AID 624382). Type of experiment: functional. The note with it: read-out: IC50_Mean.
The target in experiment [14] is T5, Streptokinase A (Streptococcus pyogenes serotype M1, UniProt P10520).
T5 sequence (P10520 whole entry): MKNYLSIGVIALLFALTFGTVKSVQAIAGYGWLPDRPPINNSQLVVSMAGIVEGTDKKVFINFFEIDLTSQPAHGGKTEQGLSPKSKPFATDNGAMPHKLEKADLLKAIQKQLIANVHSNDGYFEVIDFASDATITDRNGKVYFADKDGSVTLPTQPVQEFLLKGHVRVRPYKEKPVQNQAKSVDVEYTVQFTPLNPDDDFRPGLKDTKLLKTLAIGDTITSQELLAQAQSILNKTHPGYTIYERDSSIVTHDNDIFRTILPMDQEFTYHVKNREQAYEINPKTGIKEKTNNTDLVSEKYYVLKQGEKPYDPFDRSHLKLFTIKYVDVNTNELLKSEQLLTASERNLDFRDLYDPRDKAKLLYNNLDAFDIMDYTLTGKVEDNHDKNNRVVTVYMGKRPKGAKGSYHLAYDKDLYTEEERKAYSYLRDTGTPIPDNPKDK
Put plainly: viability-normalized secreted streptokinase activity reduction – plasminogen activation absorbance, OD405, dose response (AID 1914).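 Also: secreted streptokinase activity via plasminogen activation per viability signal from cell pellet.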 It counts as functional, Streptococcus pyogenes M1 GAS.

Experiment [15] has as its system Streptococcus sp. 'group A'. In words: Streptococcus pyogenes SK(-)GAS viability under kanamycin – luminescence, BacTiterGlo, confirmation, counter-screen for streptokinase expression inhibitor project, dose response (AID 1900). It counts as functional, organism-based.
For experiment [16], the target named is Genome polyprotein (dengue virus type 2, UniProt P29990). Put plainly: flavivirus cap methylation enzyme inhibition – biochemical, confirmation dose response, primary screen (AID 588689). It counts as functional.
Experiment [17] has as its target Induced myeloid leukemia cell differentiation protein Mcl-1 (Homo sapiens, UniProt Q07820). It counts as functional.
The subject of experiment [18] is P388. Put plainly: cells. Type of experiment: functional. As to conditions: Mus musculus.
In experiment [19] the test system is P388/ADR. In words: cells. It counts as functional. As to conditions: Mus musculus.
Experiment [20] concerns SN12K1. In words: cells. It counts as functional. The note with it: Homo sapiens.

Active and inactive are the calls of the source.

Sequence of Melanocortin receptor 4 (P32245 whole entry): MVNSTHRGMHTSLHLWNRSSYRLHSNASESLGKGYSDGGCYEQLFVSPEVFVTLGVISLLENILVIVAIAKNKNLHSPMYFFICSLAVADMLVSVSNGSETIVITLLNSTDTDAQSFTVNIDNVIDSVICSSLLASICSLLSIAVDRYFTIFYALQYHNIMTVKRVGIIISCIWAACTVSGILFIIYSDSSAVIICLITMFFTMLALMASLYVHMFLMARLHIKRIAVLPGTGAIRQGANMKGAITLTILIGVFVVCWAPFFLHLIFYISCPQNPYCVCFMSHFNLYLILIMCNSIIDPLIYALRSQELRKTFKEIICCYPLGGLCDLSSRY
Sequence of Protein Wnt-3a (P27467 whole entry): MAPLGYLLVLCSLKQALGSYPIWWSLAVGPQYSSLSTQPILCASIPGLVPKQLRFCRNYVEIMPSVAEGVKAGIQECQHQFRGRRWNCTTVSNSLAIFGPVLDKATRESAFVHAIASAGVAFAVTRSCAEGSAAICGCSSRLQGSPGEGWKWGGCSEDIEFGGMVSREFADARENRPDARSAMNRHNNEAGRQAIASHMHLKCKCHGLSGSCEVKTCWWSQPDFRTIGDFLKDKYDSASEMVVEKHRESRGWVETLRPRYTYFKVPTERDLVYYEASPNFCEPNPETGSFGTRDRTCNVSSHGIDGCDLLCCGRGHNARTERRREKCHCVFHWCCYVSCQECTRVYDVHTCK
T3 sequence (P63165 whole entry): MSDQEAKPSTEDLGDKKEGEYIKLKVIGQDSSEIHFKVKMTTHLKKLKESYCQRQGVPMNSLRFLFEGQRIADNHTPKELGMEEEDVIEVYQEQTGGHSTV
Sequence of Genome polyprotein (P29990 2492-3391 limits assumed): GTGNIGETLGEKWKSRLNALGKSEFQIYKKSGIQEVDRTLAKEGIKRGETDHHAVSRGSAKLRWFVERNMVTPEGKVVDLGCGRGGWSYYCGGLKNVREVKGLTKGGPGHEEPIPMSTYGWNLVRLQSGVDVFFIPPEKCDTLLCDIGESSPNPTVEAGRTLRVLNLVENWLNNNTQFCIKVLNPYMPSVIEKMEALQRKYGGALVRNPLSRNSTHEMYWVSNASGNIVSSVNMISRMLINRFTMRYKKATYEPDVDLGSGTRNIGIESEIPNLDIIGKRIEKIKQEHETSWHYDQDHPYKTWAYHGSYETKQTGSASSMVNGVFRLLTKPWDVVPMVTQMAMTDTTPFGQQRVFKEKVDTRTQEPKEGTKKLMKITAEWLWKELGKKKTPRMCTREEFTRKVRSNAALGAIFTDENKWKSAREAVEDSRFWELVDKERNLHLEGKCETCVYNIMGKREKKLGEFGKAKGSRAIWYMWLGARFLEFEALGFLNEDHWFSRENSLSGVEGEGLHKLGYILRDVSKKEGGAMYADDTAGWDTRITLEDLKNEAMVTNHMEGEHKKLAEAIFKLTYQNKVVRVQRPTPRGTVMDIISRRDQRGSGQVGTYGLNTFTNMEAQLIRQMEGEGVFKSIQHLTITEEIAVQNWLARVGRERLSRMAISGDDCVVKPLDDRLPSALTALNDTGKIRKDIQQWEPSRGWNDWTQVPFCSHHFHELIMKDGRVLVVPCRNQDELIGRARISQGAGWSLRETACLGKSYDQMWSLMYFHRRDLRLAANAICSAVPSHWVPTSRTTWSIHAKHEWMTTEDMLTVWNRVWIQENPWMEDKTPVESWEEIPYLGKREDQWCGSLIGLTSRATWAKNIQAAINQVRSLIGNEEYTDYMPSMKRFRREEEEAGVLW
Sequence of Eukaryotic translation initiation factor 4E (P63073 whole entry): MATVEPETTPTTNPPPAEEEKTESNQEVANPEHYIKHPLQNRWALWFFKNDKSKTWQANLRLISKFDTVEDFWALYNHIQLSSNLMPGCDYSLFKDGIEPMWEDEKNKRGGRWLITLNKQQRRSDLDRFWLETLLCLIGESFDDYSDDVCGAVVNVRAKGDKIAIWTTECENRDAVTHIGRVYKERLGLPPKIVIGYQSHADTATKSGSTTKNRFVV
Sequence of Induced myeloid leukemia cell differentiation protein Mcl-1 (Q07820 whole entry): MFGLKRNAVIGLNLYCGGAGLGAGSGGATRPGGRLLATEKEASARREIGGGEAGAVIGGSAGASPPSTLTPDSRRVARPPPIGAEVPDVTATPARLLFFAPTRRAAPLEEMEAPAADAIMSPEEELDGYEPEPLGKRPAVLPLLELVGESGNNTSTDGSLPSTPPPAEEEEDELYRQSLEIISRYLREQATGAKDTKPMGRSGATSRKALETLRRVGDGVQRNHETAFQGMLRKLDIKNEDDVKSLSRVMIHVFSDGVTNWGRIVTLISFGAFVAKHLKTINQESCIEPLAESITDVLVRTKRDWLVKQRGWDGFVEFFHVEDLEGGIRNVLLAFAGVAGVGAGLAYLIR

Consider `O=C(NC(c1cccnc1)C(F)(F)F)c1cc(COc2ccc3c(c2)CCCC3)on1` (stereo not given), for which the AC50 in experiment [1] was 3.48 µM (active). Moreover, the IC50 in [2] was 40.4 µM (inactive).
Regarding `C(#Cc1ccccc1)C[N+]1(CC#Cc2ccccc2)CCCC1`, the IC50 in [2] is 8.34 µM (active).
Take `O=C(Nc1nc2cc(Cl)ccc2s1)C1CCCN(S(=O)(=O)c2cccc3cccnc23)C1` (stereo not given): the IC50 in [3] and in [4] was > 64.6 µM (inactive) in each case.
As to `CCN1CCN(C2=C(NS(=O)(=O)c3ccccc3)C(=O)c3ccccc3C2=O)CC1`, the CC50 in experiment [5] was 24.8 µM (active). In addition, the IC50 in [6] is 19.1 µM (active). Further, the AC50 in experiment [1] is 5.62 µM (active).
For `CCN(c1ccc(OCC(=O)OCC(=O)c2c(N)n(C)c(=O)n(C)c2=O)cc1)S(=O)(=O)c1ccccc1`, the IC50 in experiment [3] was > 64.6 µM (inactive); in [4] it was > 7.18 µM (active).
Consider `CCCn1c(SCC(=O)Nc2nc3ccccc3s2)nc2c1c(=O)n(C)c(=O)n2C`, for which the EC50 in experiment [7] and in [8] was > 99 µM (inactive) throughout.
Take `N#C/C(=C/C1=C(N2CCOCC2)C(=C/c2cccc([N+](=O)[O-])c2)/CC1)C(=O)Nc1ccccc1F`: the EC50 in experiment [7] and in experiment [8] was > 99 µM (inactive) each time.
`c1ccc(COc2ccc(-c3cc4nc(NCCN5CCOCC5)ccn4n3)cc2)cc1`: the values for the IC50 in [3] and in experiment [4] were > 64.6 µM (inactive) and 20 µM (inactive), respectively.
Consider `Cn1ncc(/N=C/c2c(O)ccc3ccccc23)c1C(=O)Nc1cccc(Cl)c1`, for which the EC50 in experiment [7] was 94.5 µM (inactive); in experiment [8], 26.2 µM (inactive).
Consider `CCN1C(=O)/C(=C\c2ccc(-c3ccc([N+](=O)[O-])cc3OC)o2)S/C1=N\c1cccc(C(=O)O)c1`, for which the CC50 in experiment [5] was > 40 µM (active). Also, the IC50 in experiment [9] was 25.8 µM (inactive); in [11], 2.2 µM (active); in [12], 50 µM (inactive); in [13], > 66.6 µM (inactive); in experiment [16] it was 64.5 µM (active); in experiment [17], 6.7 µM (active). For the same molecule, the EC50 is 8.58 µM (active) in experiment [10], > 150 µM (not active) in experiment [14] and 3.17 µM (active) in experiment [15].
As for `ClCCCN1CCN(CCCl)CC1`, the figures for the GI50 in experiment [18], in [19] and in experiment [20] were 17.7 µM (inactive), 27 µM (inactive) and 109 µM (inactive), respectively.
Turning to `C=C1C(=O)O[C@@H]2[C@H](O)[C@@H](C)[C@@H]3C=CC(=O)[C@@]3(C)[C@H](OC(=O)C=C(C)C)[C@H]12`, the GI50 in experiment [18] is 0.194 µM (active); in experiment [19], 0.141 µM (active); in experiment [20] it was 0.681 µM (active).
The corresponding values for `Nc1nc(=O)c2c([nH]1)NCC(CNc1ccc(C(=O)N[C@@H](CCC(=O)O)C(=O)O)cc1)N2C=O` (stereo not given in full) [LEUCOVORIN CALCIUM] are > 125 µM (inactive), > 124 µM (inactive) and > 125 µM (inactive).
In the case of `CCCCCCCCCCCCCCCCCCOP(=O)([O-])OCC[N+](C)(C)C` [OCTADECYLPHOSPHONOCHOLINE], the GI50 in [18] is 3.78 µM (inactive); in experiment [19], 11.1 µM (inactive); in experiment [20], 13.7 µM (inactive).
